system: mouse; assay: Oral activity in vivo: audiogenic mouse test and/or MES test; conditions: oral administration
Description: The oral bioavailability was tested using the audiogenic mouse test (Audiogenic seizures, R. L. Collins; Chapter 14, pages: 347-372. In: Experimental Models of Epilepsy; By: Pupura, Penry, Tower, Woodbury, Walter, Raven Press, New York, 1972. Standard Book Number: 0-911216-26-X) and/or the MES test.

SMILES | In vivo orally active
Cn1nncc1-c1cc2c(=O)n(NS(C)(=O)=O)c(=O)[nH]c2cc1C(F)(F)F [Comparative, N-(6-(1-methyl-1H-1,2,3-triazol-5-yl)-2,4-dioxo-7-trifluoromethyl-1,4-dihydro-2H-quinazolin-3-yl]-methanesulfonamide, reference compound] | No
CC(O)c1cc2c(=O)n(NS(C)(=O)=O)c(=O)[nH]c2cc1C(F)(F)F (stereo not drawn) [Compound A-1, N-[6-(1-Hydroxy-ethyl)-2,4-dioxo-7-trifluoromethyl-1,4-dihydro-2H-quinazolin-3-yl]-methanesulfonamide] | Yes
COC(C)c1cc2c(=O)n(NS(C)(=O)=O)c(=O)[nH]c2cc1C(F)(F)F (stereo not drawn) [Compound A-2, N-[6-(1-Methoxy-ethyl)-2,4-dioxo-7-trifluoromethyl-1,4-dihydro-2H-quinazolin-3-yl]-methanesulfonamide] | Yes
CCC(O)c1cc2c(=O)n(NS(C)(=O)=O)c(=O)[nH]c2cc1C(F)(F)F (stereo not drawn) [Compound A-3, N-[6-(1-Hydroxy-propyl)-2,4-dioxo-7-trifluoromethyl-1,4-dihydro-2H-quinazolin-3-yl]-methanesulfonamide] | Yes
CC(C)OC(C)c1cc2c(=O)n(NS(C)(=O)=O)c(=O)[nH]c2cc1C(F)(F)F (stereo not drawn) [Compound A-4, N-[6-(1-Isopropoxy-ethyl)-2,4-dioxo-7-trifluoromethyl-1,4-dihydro-2H-quinazolin-3-yl]-methanesulfonamide] | Yes
CCOC(C)c1cc2c(=O)n(NS(C)(=O)=O)c(=O)[nH]c2cc1C(F)(F)F (stereo not drawn) [Compound A-5, N-[6-(1-Ethoxy-ethyl)-2,4-dioxo-7-trifluoromethyl-1,4-dihydro-2H-quinazolin-3-yl]-methanesulfonamide] | Yes
CCCOC(CC)c1cc2c(=O)n(NS(C)(=O)=O)c(=O)[nH]c2cc1C(F)(F)F (stereo not drawn) [Compound A-6, N-[2,4-Dioxo-6-(1-propoxy-propyl)-7-trifluoromethyl-1,4-dihydro-2H-quinazolin-3-yl]-methanesulfonamide] | Yes
CCC(OC(C)C)c1cc2c(=O)n(NS(C)(=O)=O)c(=O)[nH]c2cc1C(F)(F)F (stereo not drawn) [Compound A-7, N-[6-(1-isopropoxy-propyl)-2,4-dioxo-7-trifluoromethyl-1,4-dihydro-2H-quinazolin-3-yl]-methanesulfonamide] | Yes
CCOC(CC)c1cc2c(=O)n(NS(C)(=O)=O)c(=O)[nH]c2cc1C(F)(F)F (stereo not drawn) [Compound A-13, N-[6-(1-Ethoxy-propyl)-2,4-dioxo-7-trifluoromethyl-1,4-dihydro-2H-quinazolin-3-yl]-methanesulfonamide] | Yes
CC(OC1CCCC1)c1cc2c(=O)n(NS(C)(=O)=O)c(=O)[nH]c2cc1C(F)(F)F (stereo not drawn) [Compound A-14, N-[6-(1-Cyclopentyloxy-ethyl)-2,4-dioxo-7-trifluoromethyl-1,4-dihydro-2H-quinazolin-3-yl]-methanesulfonamide] | yes
CCCC(O)c1cc2c(=O)n(NS(C)(=O)=O)c(=O)[nH]c2cc1C(F)(F)F (stereo not drawn) [Compound A-15, N-[6-(1-Hydroxy-butyl)-2,4-dioxo-7-trifluoromethyl-1,4-dihydro-2H-quinazolin-3-yl]-methanesulfonamide] | Yes
COCCC(O)c1cc2c(=O)n(NS(C)(=O)=O)c(=O)[nH]c2cc1C(F)(F)F (stereo not drawn) [Compound A-18, N-[6-(1-Hydroxy-3-methoxy-propyl)-2,4-dioxo-7-trifluoromethyl-1,4-dihydro-2H-quinazolin-3-yl]-methanesulfonamide] | Yes
CS(=O)(=O)Nn1c(=O)[nH]c2cc(C(F)(F)F)c(C3CCCO3)cc2c1=O (stereo not drawn) [Compound B-2, N-[2,4-Dioxo-6-(tetrahydro-furan-2-yl)-7-trifluoromethyl-1,4-dihydro-2H-quinazolin-3-yl]-methanesulfonamide] | Yes
CS(=O)(=O)Nn1c(=O)[nH]c2cc(C(F)(F)F)c(C3CCOC3)cc2c1=O (stereo not drawn) [Compound B-3, N-[2,4-Dioxo-6-(tetrahydro-furan-3-yl)-7-trifluoromethyl-1,4-dihydro-2H-quinazolin-3-yl]-methanesulfonamide] | Yes
COCCn1nccc1-c1cc2c(=O)n(NS(C)(=O)=O)c(=O)[nH]c2cc1C(C)C [Compound C-1, N-{7-Isopropyl-6-[2-(2-methoxy-ethyl)-2H-pyrazol-3-yl]-2,4-dioxo-1,4-dihydro-2H-quinazolin-3-yl}-methanesulfonamide] | yes
CC(C)n1nccc1-c1cc2c(=O)n(NS(C)(=O)=O)c(=O)[nH]c2cc1C(F)(F)F [Compound C-2, N-[6-(2-Isopropyl-2H-pyrazol-3-yl)-2,4-dioxo-7-trifluoromethyl-1,4-dihydro-2H-quinazolin-3-yl]-methanesulfonamide] | Yes
CC(C)n1nccc1-c1cc2c(=O)n(NS(C)(=O)=O)c(=O)[nH]c2cc1CF [Compound C-3, N-[7-Fluoromethyl-6-(2-isopropyl-2H-pyrazol-3-yl)-2,4-dioxo-1,4-dihydro-2H-quinazolin-3-yl]-methanesulfonamide] | Yes
COCCn1nccc1-c1cc2c(=O)n(NS(C)(=O)=O)c(=O)[nH]c2cc1C(F)(F)F [Compound C-4, N-{6-[2-(2-Methoxy-ethyl)-2H-pyrazol-3-yl]-2,4-dioxo-7-trifluoromethyl-1,4-dihydro-2H-quinazolin-3-yl}-methanesulfonamide] | Yes
CS(=O)(=O)Nn1c(=O)[nH]c2cc(C(F)(F)F)c(-c3ccnn3O)cc2c1=O [Compound C-5, N-[6-(2-Hydroxy-2H-pyrazol-3-yl)-2,4-dioxo-7-trifluoromethyl-1,4-dihydro-2H-quinazolin-3-yl]-methanesulfonamide] | Yes
CCc1cc2[nH]c(=O)n(NS(C)(=O)=O)c(=O)c2cc1-c1ccnn1C(C)C [Compound C-6, N-[7-Ethyl-6-(2-isopropyl-2H-pyrazol-3-yl)-2,4-dioxo-1,4-dihydro-2H-quinazolin-3-yl]-methanesulfonamide] | Yes
CC(C)c1cc2[nH]c(=O)n(NS(C)(=O)=O)c(=O)c2cc1-c1ccnn1C [Compound C-7, N-[7-Isopropyl-6-(2-methyl-2H-pyrazol-3-yl)-2,4-dioxo-1,4-dihydro-2H-quinazolin-3-yl]-methanesulfonamide] | Yes
CC(C)c1cc2[nH]c(=O)n(NS(C)(=O)=O)c(=O)c2cc1-c1ccnn1C(C)C [Compound C-8, N-[7-Isopropyl-6-(2-isopropyl-2H-pyrazol-3-yl)-2,4-dioxo-1,4-dihydro-2H-quinazolin-3-yl]-methanesulfonamide] | yes
Cn1nccc1-c1cc2c(=O)n(NS(C)(=O)=O)c(=O)[nH]c2cc1C(F)F [Compound C-9, N-[7-Difluoromethyl-6-(2-methyl-2H-pyrazol-3-yl)-2,4-dioxo-1,4-dihydro-2H-quinazolin-3-yl]-methanesulfonamide] | Yes
CC(C)n1nccc1-c1cc2c(=O)n(NS(C)(=O)=O)c(=O)[nH]c2cc1C(F)F [Compound C-10, N-[7-Difluoromethyl-6-(2-isopropyl-2H-pyrazol-3-yl)-2,4-dioxo-1,4-dihydro-2H-quinazolin-3-yl]-methanesulfonamide] | Yes
CCc1cc2[nH]c(=O)n(NS(C)(=O)=O)c(=O)c2cc1-c1ccnn1C [Compound C-11, N-[7-Ethyl-6-(2-methyl-2H-pyrazol-3-yl)-2,4-dioxo-1,4-dihydro-2H-quinazolin-3-yl]-methanesulfonamide] | Yes
CCc1cc2[nH]c(=O)n(NS(C)(=O)=O)c(=O)c2cc1-c1ccnn1CC [Compound C-12, N-[7-Ethyl-6-(2-ethyl-2H-pyrazol-3-yl)-2,4-dioxo-1,4-dihydro-2H-quinazolin-3-yl]-methanesulfonamide] | Yes
Cn1nccc1-c1cc2c(=O)n(NS(C)(=O)=O)c(=O)[nH]c2cc1C(C)(F)F [Compound C-15, N-[7-(1,1-difluoro-ethyl)-6-(2-methyl-2H-pyrazol-3-yl)-2,4-dioxo-1,4-dihydro-2H-quinazolin-3-yl]-methanesulfonamide] | Yes
CC(C)n1nccc1-c1cc2c(=O)n(NS(C)(=O)=O)c(=O)[nH]c2cc1C(C)(F)F [Compound C-16, N-[7-(1,1-difluoro-ethyl)-6-(2-isopropyl-2H-pyrazol-3-yl)-2,4-dioxo-1,4-dihydro-2H-quinazolin-3-yl]-methanesulfonamide] | Yes
CC(F)c1cc2[nH]c(=O)n(NS(C)(=O)=O)c(=O)c2cc1-c1ccnn1C(C)C (stereo not drawn) [Compound C-17, N-[7-(1-fluoro-ethyl)-6-(2-isopropyl-2H-pyrazol-3-yl)-2,4-dioxo-1,4-dihydro-2H-quinazolin-3-yl]-methanesulfonamide] | Yes
Cn1nccc1-c1cc2c(=O)n(NS(C)(=O)=O)c(=O)[nH]c2cc1C(F)(F)F [Compound C-18, N-[6-(2-Methyl-2H-pyrazol-3-yl)-2,4-dioxo-7-trifluoromethyl-1,4-dihydro-2H-quinazolin-3-yl]-methanesulfonamide] | Yes
